Tests used:
Type in all cases: cell-based, human
[1] = test system: MECP2-mosaic (CTR/KO) neurospheres; test: Neurosphere size (diameter); conditions: 8-week MECP2-mosaic neurospheres, P=0.79
Description: Nefiracetam and PHA 543613 increase activity in MECP2-mosaic neurospheres. Because MECP2 resides on the X chromosome, random X-inactivation in females can produce a genetic pattern of mosaicism, with consequent phenotypic gradation, in which some cells express the normal allele while others are mutant. Therefore, as the next stage to evaluate the two drug candidates, a neurosphere model of MECP2 mosaicism was developed to mimic the female RTT brain by combining different proportions of control and MECP2-KO NPCs (see FIG. 7A-C). […] Calcium transient frequency in MECP2-mosaic neurospheres was increased by treatment with Nefiracetam in isolation (1 μM, P<0.05) and when combined with PHA 543613 (10 μM, P<0.001; FIG. 7H), but calcium transient amplitude was unaffected by either compound (P=0.255; FIG. 7I). To investigate the impact of the drug treatments on the electrophysiological properties of the MECP2-mosaic model, neurospheres treated with 1 μM Nefiracetam, 1 μM PHA 543613, or both Nefiracetam and PHA 543613 were plated to perform MEA analysis. […] Because each drug conferred a benefit to MECP2-mosaic neurospheres, both Nefiracetam and PHA 543613 were retained for further evaluation in a more complex human neurodevelopmental model.

[2] = test system: MECP2-KO cortical organoids; test: Cortical organoid diameter; conditions: 1 μM for one month, 2-month old organoids
Protocol: Generation of cortical organoids. Cortical organoid generation was performed according to Trujillo et al. (Cell Stem Cell 25:558-569.e7 (2019)). iPSCs cultured 5-7 d were dissociated with 1:1 Accutase (Life Technologies) in PBS, and 4×10^6 cells/well in mTeSR1 supplemented with 10 μM SB (Stemgent), 1 μM Dorso (R&D Systems), and 5 μM Y-27632 (EMD-Millipore, Burlington, Mass., USA) were plated on rotating suspension. […]
Nefiracetam and PHA 543613 rescue network activity in MECP2-KO cortical organoids. The therapeutic efficacy of Nefiracetam and PHA 543613 was evaluated with cortical organoids, a complex, three-dimensional human neurodevelopmental model that closely recapitulates aspects of human fetal neurodevelopment. […]

[3] = test system: MECP2-mosaic (CTR/KO) neurospheres; test: Calcium imaging of neurospheres; conditions: for calcium transient amplitude: P=0.255
Protocol: Calcium imaging. Calcium imaging was performed as described in Chailangkarn et al. Briefly, PSC-derived neuronal networks were lentivirally transduced with a Syn::RFP reporter construct. Cultures were washed with Krebs HEPES buffer and incubated with Fluo-4AM (Molecular Probes/Invitrogen, Carlsbad, Calif., USA). A Hamamatsu ORCA-ER digital camera (Hamamatsu Photonics, Japan) with 488 nm filter on an Olympus IX81 inverted fluorescence confocal microscope (Olympus Optical, Tokyo, Japan) acquired 5000 frames at 28 Hz in a 256×256 pixel region (100× magnification). Images were acquired with MetaMorph7.7 (MDS Analytical Technologies, Sunnyvale, Calif., USA) and analyzed with ImageJ and Matlab7.2 (Mathworks, Natick, Mass., USA). Syn::RFP+ neurons were selected following tetrodotoxin blockade of calcium transients. A 95th-percentile threshold of amplitude for calcium spikes was set for event detection; signal amplitude is presented as fluorescence change (ΔF/F) following background subtraction.
Nefiracetam and PHA 543613 increase activity in MECP2-mosaic neurospheres. Because MECP2 resides on the X chromosome, random X-inactivation in females can produce a genetic pattern of mosaicism, with consequent phenotypic gradation, in which some cells express the normal allele while others are mutant. Therefore, as the next stage to evaluate the two drug candidates, a neurosphere model of MECP2 mosaicism was developed to mimic the female RTT brain by combining different proportions of control and MECP2-KO NPCs (see FIG. 7A-C). […] Calcium transient frequency in MECP2-mosaic neurospheres was increased by treatment with Nefiracetam in isolation (1 μM, P<0.05) and when combined with PHA 543613 (10 μM, P<0.001; FIG. 7H), but calcium transient amplitude was unaffected by either compound (P=0.255; FIG. 7I). To investigate the impact of the drug treatments on the electrophysiological properties of the MECP2-mosaic model, neurospheres treated with 1 μM Nefiracetam, 1 μM PHA 543613, or both Nefiracetam and PHA 543613 were plated to perform MEA analysis. […]

Row | Structure (SMILES) | neurosphere diameter [1] | diameter of MECP2-KO organoids [2] | calcium transient frequency ([3]; 1 μM, in isolation, P<0.05 vs CTR/KO untreated) | calcium transient amplitude [3]
1 | Cc1cccc(C)c1NC(=O)CN1CCCC1=O [Nefiracetam, nefiracetam] | did not alter | increased | increased | unaffected
2 | O=C(N[C@H]1CN2CCC1CC2)c1cc2ccoc2cn1 [PHA 543613, N-[(3R)-1-azabicyclo[2.2.2]oct-3-yl]furo[2,3-c]pyridine-5-carboxamide] | did not alter | increased |  | unaffected

From patent US20230102192A1, “THERAPIES FOR THE TREATMENT OF DISEASES AND DISORDERS ASSOCIATED WITH ABNORMAL EXPRESSION OF A NEURAL-ASSOCIATED GENE” (The Regents of the University of California, priority 2020, published 2023)
